Drawing on BindingDB's records for doi:10.1021/acschembio.6b00156 (Helmholtz-Institute For Pharmaceutical Research Saarland, 2016), this text covers Kd for 2 molecules.

This test addresses Quinolone signal response protein (Pseudomonas aeruginosa, UniProt A0A072ZMX8). As to the kind of experiment: Isothermal Titration Calorimetry (ITC). The conditions noted are these: 14 °C. The method, then: ITC titrations were performed using an ITC200 instrument (Microcal Inc.,Malvern). DMSO stock solutions (20 mM) of fragments were diluted 1:20 (v/v) into ITC titration buffer (50 mM tricine, 2 mM MnCl2, pH = 8.5) to give a 1 mM final compound concentration at 5% (v/v) DMSO. Aliquots of the same buffer batch (stored at […]) were used as for protein storage to avoid a buffer mismatch. H6PqsE was diluted in the same buffer to 100 μM, and DMSO concentration was adjusted to 5% (v/v). Titrations were carried out at 298 K using 19 injections of 2 μL every 180 s. Areas under the peaks were integrated. Baseline peaks at the endof a titration accounting for the heat of dilution and mixing were subtracted from the measurement. Data were fitted to a 1:1 binding model (MicroCal Origin 7 software).

Quinolone signal response protein, sequence (A0A072ZMX8 whole entry, the tested form may be a part): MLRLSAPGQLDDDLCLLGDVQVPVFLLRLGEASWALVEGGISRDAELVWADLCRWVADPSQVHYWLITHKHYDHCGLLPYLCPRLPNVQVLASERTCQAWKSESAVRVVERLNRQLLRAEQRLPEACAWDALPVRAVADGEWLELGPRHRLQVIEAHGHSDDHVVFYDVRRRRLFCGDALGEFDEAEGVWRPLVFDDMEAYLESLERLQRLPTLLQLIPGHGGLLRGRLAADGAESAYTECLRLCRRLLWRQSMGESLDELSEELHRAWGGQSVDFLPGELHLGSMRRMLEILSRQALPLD

As usually defined, the Kd is the equilibrium constant for the complex coming apart. Consider `Cc1ccsc1C(=O)O` [AC30341 (3)], for which the Kd worked out at 19.6 µM.

For the molecule `O=C(O)c1ccccc1-c1cccnc1` [CC41801 (1)], the Kd was found to be 0.9 µM.
